{
  "source": "patent US5157052A",
  "about": "“Method for inhibiting IgE production” (priority 1990, dated 1992)",
  "assay_type_in_all_cases": "in vivo, mouse (Balb/c female)",
  "key": {"IgE [1]": {"test_system": "IgE", "assay": "Secondary antigen-specific IgE response to TNP-KLH on alum", "settings": "20 μg IP 3x daily days 24 and 25", "description": "(§1) ELISA (enzyme linked immunosorbant assay) measurements of IgE are as follows. About 5 μg of B1E3 antibody in 100 μl borate buffered saline (pH8.5) is added to wells of a NuncImmulon II 96 well plate (DiRuscio & Assoc., St. Louis, Mo.) at 37° C. for 90 minutes. The non-bound antibody is removed by flicking the plate. Unreacted sites on the plastic plate are blocked by adding about 200 μl of a 2% solution of newborn bovine serum (NBS) in PBS at 37° C. for 60 minutes. The standard IgE (or an unknown murine serum sample) is diluted to between about 4 ng/ml-256 ng/ml in Hanks-HS (20 mM Hepes, 2% NBS in Hanks Balanced Salt Solution, Gibco, Grand Island, N.Y.) or to 1/200 to 1/1000 in Hanks-HS respectively. 100 μl of standard (or unknown dilutions) are added in triplicate to the wells of the plate and allowed to absorb to B1E3 antibody at about 37° C. for 2-4 hours. The solution is removed by flicking the plate and each well is washed with about 0.5 ml 0.05% Tween 20-PBS 5 times. About 100 μl of biotinylated R1E4, called the primary antibody, diluted to 200 ng/ml is added to all wells and incubated at about 4° C. overnight. The solution is removed by flicking the plate and washed 5 times as described above. The developing reagent (Avidin and biotin-horse radish peroxidase) is incubated in 2% NBS in PBS at ambient temperature for 30 minutes, according to manufacturer's specifications (Vector Laboratories, Burlingame, Calif.). About 100 μl of developing reagent is added to each well and incubated at ambient temperature for 30 minutes. Colorimetric substrate for the developing reagent (ABTS peroxidase substrate system, KPL, Gaithersburg, Md.) is prepared by mixing equal volumes of solutions A and B and incubating at ambient temperature for 60 minutes. The developing reagent solution is removed by flicking the plate and washed 5 times as described above. About 100 μl of the mixture of substrates is added to each well and incubated at ambient temperature for 60 minutes. The optical density of each well is determined on a BioTek ELISA reader (Biotek Instruments, Inc., Burlington, Vermont) and the absorbance data transferred electronically to a DEC VAX mainframe computer. A standard curve is fitted to the IgE standard optical densities using straight line, linear regression statistical fits. IgE in the unknown serum samples is determined by comparing the optical density of the unknown to the standard curve and multiplying that number by the dilution of serum used in the assay.\nStimulation of a secondary antigen-specific IgE response in mouse with haptenated antigen absorbed on alum is inhibited by (±) methyl 11α,16-dihydroxy-16-methyl-9-oxoprosta-5Z,13E-dien-1-oate. Three groups of 7 Balb/c female mice were treated as follows. […]"}, "IgE [2]": {"test_system": "IgE", "assay": "Inhibition of de novo IgE synthesis after oral (intragastric) administration", "settings": "for IgE ± SD: 20 μg intragastric TID days 3 and 4", "description": "as §1\nThree groups of 4 Balb/c female mice per group are injected with both 100 μg FF1-4D5 antibody and 100 μg H∂A1 antibody (Groups B, C, and D). Another group of 4 Balb/c female mice is injected with PBS alone, unstimulated control Group A. One of the stimulated group were not given any prostaglandin control Group B. On day 3 and 4, individual groups receive an intragastric feeding TID of 0.25 ml of 20 μg of (±) methyl 11α,16-dihydroxy-16-methyl-9-oxoprosta-5Z,13E-dien-1-oate (Group C) or 20 μg of prostaglandin E2 (Group D) dissolved in PBS."}, "Lyt 1": {"test_system": "Lyt 1", "assay": "Splenocyte cell surface density/distribution (FACS): Lyt 1"}, "[3]": {"test_system": "leukocyte membrane proteins", "assay": "Cell surface density or distribution of leukocyte membrane proteins, overall"}, "[4]": {"settings": "day -1 baseline before treatment"}},
  "data": [
    {"smiles": "CCCCC(C)(O)C/C=C/[C@H]1[C@H](O)CC(=O)[C@@H]1C/C=C\\CCCC(=O)OC", "note": "(mixture of isomers) [(±) methyl 11α,16-dihydroxy-16-methyl-9-oxoprosta-5Z,13E-dien-1-oate]", "values": [
      {"measurement": "secondary IgE response", "setting": "IgE [1]", "value": "inhibited from the synthesis of a secondary IgE response"},
      {"measurement": "IgE ± SD", "setting": "IgE [1]; day 28, p < .02 (boosted control 28,568)", "value": "14,448 ± 4926 ng/ml"},
      {"measurement": "IgE ± SD", "setting": "IgE [1]; day 30, p < .016 (boosted control 22,564)", "value": "7564 ± 1528", "unit": "ng/mL"},
      {"measurement": "IgE ± SD", "setting": "IgE [1]; [4]", "value": "1487 ± 138", "unit": "ng/mL"},
      {"measurement": "inhibition of de novo IgE synthesis after oral administration", "setting": "IgE [2]; 20 μg intragastric TID", "value": "significantly inhibits de novo IgE synthesis after oral administration"},
      {"measurement": "IgE ± SD", "setting": "IgE [2]; day 8 (stimulated control 5792, unstimulated 1015)", "value": "1490 ± 525", "unit": "ng/mL"},
      {"measurement": "IgE ± SD", "setting": "IgE [2]; day 10 (stimulated control 1498)", "value": "1131 ± 198", "unit": "ng/mL"},
      {"measurement": "IgE ± SD", "setting": "IgE [2]; [4]", "value": "1115 ± 201", "unit": "ng/mL"},
      {"measurement": "Percentage Positive Cells", "setting": "Lyt 1; anti-IgD stimulated mice, 20 μg days 3 and 4, day 7 (PBS 31.3)", "value": "30.4 ± 8.8", "unit": "%"},
      {"measurement": "Mean Channel Log Fluorescence", "setting": "Lyt 1; anti-IgD stimulated mice, 20 μg days 3 and 4, day 7 (PBS 110)", "value": "109 ± 2"},
      {"measurement": "Percentage Positive Cells", "setting": "Lyt 1; unstimulated mice, 20 μg (PBS 31)", "value": "44.5 ± 7", "unit": "%"},
      {"measurement": "Mean Channel Log Fluorescence", "setting": "Lyt 1; unstimulated mice, 20 μg (PBS 110)", "value": "117 ± 6"},
      {"measurement": "cell surface density and distribution", "setting": "[3]; anti-IgD stimulated mice, 20 μg days 3 and 4, day 7", "value": "identical cell surface density and distribution as the PBS treated group"},
      {"measurement": "cell surface density and distribution", "setting": "[3]; unstimulated mice, 20 μg", "value": "does not effect basal cell surface density or distribution of leukocyte membrane proteins"}
    ]}
  ]
}
